The values that follow are results of earlier work, collected in patent publication US7378418B2, “Azabicyclic heterocycles as cannabinoid receptor modulators” (Bristol-Myers Squibb Company, priority 2003, dated 2008).

The test system of one series is human subjects. As to conditions: 16 week trial period, published Phase IIb data.
The conditions of series [1]: chronic administration for two weeks (Hildebrandt et al. 2003).

For the compound `Cc1c(C(=O)NN2CCCCC2)nn(-c2ccc(Cl)cc2Cl)c1-c1ccc(Cl)cc1` [SR-141716], the body weight result with human subjects was “dose-dependently reduced body weight”. With `Cc1c(C(=O)NN2CCCCC2)nn(-c2ccc(Cl)cc2Cl)c1-c1ccc(I)cc1` [AM-251], in series [1], the body weight entry is recorded as “substantial body weight reduction”.
